Key:
Assay type in all cases: in vivo
Rice = experiment: Example 2: phytotoxic injury to crops, tank mix spray; conditions: glyphosate 0.4 kg/ha, clomazone 0 kg/ha; 14 days after treatment
Procedure: (§1) Glyphosate, tested as ROUNDUP® Ultra Herbicide (termed in Examples 1-3 as “Herbicidal Compound”), and COMMAND® 3 ME Herbicide comprised of at least one plant-safening, inorganic, water-soluble salt (calcium chloride), termed in Examples 1 and 2 as “Safening Composition A”, were tested as water solutions on two soybean varieties (Asgrow 2704 and Asgrow […]). The aforementioned solutions were sprayed in admixture as a tank mix onto flats of 12-day-old soybean plants arranged in a randomized, block design. There were four replicates for each rate of application. The soybean plants were evaluated at 21 days after treatment for percent phytotoxic injury by comparison to tests conducted on untreated plants and plants treated with Herbicidal Compound only. The rate of application clomazone for the Safening Composition A, and the rate of application of glyphosate for the Herbicidal Compound are expressed below in kg/ha.
(§2) As set forth in Example 2, the Herbicidal Compound and Safening Composition A were tested in the same manner as described in Example 1. The aforementioned Herbicidal Compound and Safening Composition A were sprayed as a tank mix onto 10-14 day old crop and weed species. The tests were evaluated at 14 days after treatment for percent injury by comparison to tests conducted on untreated plants and weeds, and plants and weeds treated with Herbicidal Compound only.

Rape = experiment: as above; conditions: glyphosate 0.8 kg/ha, clomazone 0 kg/ha; 14 days after treatment
Procedure: as §1, §2

Cucumber = experiment: as above; conditions: glyphosate 0.4 kg/ha, clomazone 0 kg/ha; 14 days after treatment
Procedure: as §1, §2

Pinto Bean = experiment: as above; conditions: glyphosate 0.4 kg/ha, clomazone 0 kg/ha; 14 days after treatment
Procedure: as §1, §2

Tomato = experiment: as above; conditions: clomazone 0 kg/ha, 14 days after treatment
Procedure: as §1, §2

Sorghum = experiment: as above; conditions: clomazone 0 kg/ha, 14 days after treatment
Procedure: as §1, §2

Corn = experiment: as above; conditions: glyphosate 0.8 kg/ha, clomazone 0 kg/ha; 14 days after treatment
Procedure: as §1, §2

soybean Variety A3234 = experiment: Example 1: phytotoxic injury to soybean, tank mix sprayed on 12-day-old plants; conditions: clomazone 0 kg/ha, 21 days after treatment
Procedure: (§3) The aforementioned solutions were sprayed in admixture as a tank mix onto flats of 12-day-old soybean plants arranged in a randomized, block design. There were four replicates for each rate of application. The soybean plants were evaluated at 21 days after treatment for percent phytotoxic injury by comparison to tests conducted on untreated plants and plants treated with Herbicidal Compound only. The rate of application clomazone for the Safening Composition A, and the rate of application of glyphosate for the Herbicidal Compound are expressed below in kg/ha.

[1] = tested on: soybean variety Asgrow 2704; experiment: as above; conditions: clomazone 0 kg/ha, 21 days after treatment
Procedure: as §3

two soybean varieties = experiment: Example 1: average phytotoxic injury to the two soybean varieties; conditions: without Safening Composition A
Procedure: as §1
For example, at the 0.2, 0.4, and 0.8 kg/ha rate of application of Herbicidal Compound, the average injury to the two soybean varieties is about 18%, 46%, and 70%, respectively.

**Q.** With `O=C(O)CNCP(=O)(O)O` [Herbicidal Compound, Glyphosate] as the compound, how does the “Percent Phytotoxic Injury Rice” value (Rice) read?
**A.** 65%

**Q.** And the “Percent Phytotoxic Injury Rape” value (Rape)?
**A.** 84%

**Q.** And the “Percent Phytotoxic Injury Cucumber” value (Cucumber)?
**A.** 77%

**Q.** And the “Percent Phytotoxic Injury Pinto Bean” value (Pinto Bean)?
**A.** 63%

**Q.** And the “Percent Phytotoxic Injury Tomato” value (Tomato; glyphosate 0.2 kg/ha)?
**A.** 95%

**Q.** And the “Percent Phytotoxic Injury Tomato” value (Tomato; glyphosate 0.4 kg/ha)?
**A.** 100%

**Q.** And the “Percent Phytotoxic Injury Sorghum” value (Sorghum; glyphosate 0.4 kg/ha)?
**A.** 76%

**Q.** And the “Percent Phytotoxic Injury Sorghum” value (Sorghum; glyphosate 0.8 kg/ha)?
**A.** 100%

**Q.** What about the “Percent Phytotoxic Injury Corn” value (Corn) of the same compound?
**A.** 90%

**Q.** What about the “Percent Phytotoxic Injury To Soybean Variety A3234” value (soybean Variety A3234; glyphosate 0.2 kg/ha) of the same compound?
**A.** 22%

**Q.** What about the “Percent Phytotoxic Injury To Soybean Variety A3234” value (soybean Variety A3234; glyphosate 0.4 kg/ha) of the same compound?
**A.** 54%

**Q.** What about the “Percent Phytotoxic Injury To Soybean Variety A3234” value (soybean Variety A3234; glyphosate 0.8 kg/ha) of the same compound?
**A.** 81%

**Q.** And the “Percent Phytotoxic Injury To Soybean Variety A2704” value ([1]; glyphosate 0.2 kg/ha)?
**A.** 14%

**Q.** And the “Percent Phytotoxic Injury To Soybean Variety A2704” value ([1]; glyphosate 0.4 kg/ha)?
**A.** 38%

**Q.** And the “Percent Phytotoxic Injury To Soybean Variety A2704” value ([1]; glyphosate 0.8 kg/ha)?
**A.** 60%

**Q.** And the “average injury to the two soybean varieties” value (shortened to “average injury”) (two soybean varieties; glyphosate 0.2 kg/ha)?
**A.** about 18%

**Q.** What about the “average injury” value (two soybean varieties; glyphosate 0.4 kg/ha) of the same compound?
**A.** ~46%

**Q.** What about the “average injury” value (two soybean varieties; glyphosate 0.8 kg/ha) of the same compound?
**A.** ~70%

Reference: patent publication US20010051591A1, “Safening crops from the phytotoxic effects of herbicidally active N-phosphonomethyl-glycines” (priority 2000, published 2001)
